Test results as given in PubChem BioAssay (NCI).
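Dose response: 5 concentrations. Exposure: 48 h. Format: 96-well plates. Endpoint: linear interpolation; highest concentration if not reached. TGI denotes the concentration required for complete inhibition of growth.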

What was measured:
Assay in all cases: NCI tumour cell line growth inhibition, 48 h
[1] = tested on: KM12 colon
[2] = tested on: PC-3 prostate
[3] = tested on: SK-OV-3 ovarian
[4] = tested on: M14 melanoma
[5] = tested on: U251 CNS
[6] = tested on: HL-60(TB) leukemia
[7] = tested on: MOLT-4 leukemia
[8] = tested on: HOP-62 NSCLC
[9] = tested on: HS 578T breast
[10] = tested on: NCI-H226 lung
[11] = tested on: K-562 leukemia
[12] = tested on: NCI-H460 lung
[13] = tested on: SF-295 CNS
[14] = tested on: CAKI-1 renal

Row | Compound | TGI [1] | TGI [2] | TGI [3] | TGI [4] | TGI [5] | TGI [6] | TGI [7] | TGI [8] | TGI [9] | TGI [10] | TGI [11] | TGI [12] | TGI [13] | TGI [14]
1 | CC(=O)Nc1ccc2[nH]c(-c3cccc(Cl)c3)cc(=O)c2c1 | > 100 µM | > 100 µM | 68.5 µM | > 100 µM | 23.8 µM | > 100 µM | > 100 µM | > 100 µM | > 100 µM | – | – | – | – | –
2 | Cc1nc(N/N=C/c2ccccc2Cl)[nH]c(=O)c1CCO | > 100 µM | > 100 µM | 43.4 µM | > 100 µM | > 100 µM | > 100 µM | > 100 µM | 50.4 µM | 81.1 µM | > 100 µM | > 100 µM | > 100 µM | 96 µM | –
3 | CC(NC(=O)c1ccccc1)NC(=O)C(C)C(=O)Nc1ccccc1 (stereo not given) | > 100 µM | > 100 µM | > 100 µM | > 100 µM | > 100 µM | > 100 µM | > 100 µM | – | > 100 µM | > 100 µM | > 100 µM | > 100 µM | > 100 µM | > 100 µM
4 | COc1cc(OC)c2nc(C)c3c(c2c1)NCC3 | – | 20 µM | 49.6 µM | 24.1 µM | 33.4 µM | 40.7 µM | – | 21.6 µM | 15.1 µM | 19 µM | 27.7 µM | 12 µM | 28.9 µM | –
5 | O=c1[nH]nc(Cc2ccccc2)n1/N=C\c1ccccc1 | > 100 µM | > 100 µM | – | – | > 100 µM | > 100 µM | > 100 µM | > 100 µM | > 100 µM | > 100 µM | > 100 µM | > 100 µM | > 100 µM | > 100 µM
6 | C[C@]12CC/C(=N\O)C=C1CC[C@@H]1[C@@H]2CC[C@]2(C)C(=N/O)/C(=C/c3ccc([N+](=O)[O-])cc3)C[C@@H]12 | 23.6 µM | 34.5 µM | > 100 µM | 16 µM | – | 8.91 µM | 9.55 µM | > 100 µM | 18.3 µM | > 100 µM | 19.5 µM | > 100 µM | 8.96 µM | 6.41 µM
7 | CC1Oc2c(c(=O)oc3ccccc23)[C@@]1(C)CC1C[C@H](C)C(=O)O1 (stereo not given in full) | > 100 µM | > 100 µM | > 100 µM | 39.6 µM | > 100 µM | > 100 µM | 37.2 µM | > 100 µM | > 100 µM | > 100 µM | 66 µM | – | > 100 µM | 38.1 µM
8 | O=C(O)c1ccc(NC(NC(=O)C(C(F)(F)F)C(F)(F)F)(C(F)(F)F)C(F)(F)F)cc1 | – | > 100 µM | > 100 µM | > 100 µM | > 100 µM | > 100 µM | > 100 µM | – | > 100 µM | – | > 100 µM | – | – | > 100 µM
9 | COc1ccc(OCc2ccc3nc(-c4ccccc4)c(Cl)nc3c2)cc1 | > 100 µM | > 100 µM | – | > 100 µM | 31.6 µM | 45.9 µM | > 100 µM | 28.6 µM | > 100 µM | – | > 100 µM | > 100 µM | 62.1 µM | 51.4 µM
